Values after ≈ are worked out from the molar mass of the structure shown.
How the values were obtained:
[1] = Chemical stability of the compounds (Test Example 1); assay type: physicochemical; conditions: purity loss after placing for 7 days; 4° C. and room temperature
Protocol: 2.1 Test of Stability of the Compounds
About 1 mg of sample was weighed into a vial, then the vial was placed in a vacuum bag and the bag was vacuumized. Then the bag was put into a container containing color-changing silica gel and sealed. Two parallel samples were prepared. Enough samples were prepared according to the sampling time point and placed at 4° C. and room temperature respectively.

[2] = Water solubility (Test Example 1); assay type: physicochemical; conditions: for solubility: aqueous buffer, thermodynamic from solid
Protocol: 1.1. Preparation of Reagents
The 100 mL strength reagents were prepared as follows:
pH=3.0: phosphate buffer solution: 100 ml of 20 mmol/L NaH2PO4, 0.1M H3PO4, adjusting pH to 3.0.
pH=4.0: phosphate buffer solution: 100 ml of 20 mmol/L NaH2PO4, 0.1M H3PO4, adjusting pH to 4.0. […]
An appropriate amount of test compound was accurately weighed. The solution was added at a small amount each time for several times and stirred until the compound was dissolved, and the content of the compound in the solution was determined.

[3] = Plasma stability test (Test Example 3); assay type: in vitro ADME; conditions: human plasma; for plasma concentration of rolapitant after metabolism of the compound of the examples / plasma concentration of the compound of the examples: 37° C.; for stability and metabolism to rolapitant in plasma (in words): up to 180 min
Protocol: The compounds of Example 4, Example 6, Example 10 and Example 11.
Human fresh plasma was donated by volunteers with informed consent.
1) The test compounds in Table 3 were respectively prepared into 30 mM stock solutions with DMSO for later use.
2) The 30 mM stock solution was diluted with DMSO solution to solution I at a concentration of 1600 μM. Then the 1600 μM solution I was diluted with acetonitrile (ACN) to a working solution II at a concentration of 16 μM.
3) 7 time points of 0, 15, 30, 60, 90, 120 and 180 min were set in the experiment with two parallel samples for each time point. Two sample groups were set for each compound. 75 μL plasma and 5 μL of the above prepared working solution II with a concentration of 16 μM were added to each group. The reaction system was incubated at 37° C. until the preset time when the reaction was stopped by 300 μL of the ACN solution containing the internal standard. The reaction mixture was centrifuged at 3700 rpm for 10 min, and the supernatant was collected for analysis.
4) Preparation of the standard curve: the previously diluted 1600 μM solution I was diluted with acetonitrile to 1.5 μM/mL solution III as the standard curve for later use. The standard curve concentration was set to […]. After dilution of each concentration of the standard curve, 75 μL plasma was added to 5 μL of each concentration point at a final concentration of 0.02, 0.05, 0.1, 0.25, 0.75, 1.0 and 1.5 uM, respectively. 300 μL stop solution was then added to the samples quickly which was then centrifuged at 3700 rpm for 10 min, and the supernatant was collected for LC-MSMS analysis.

Structure (SMILES) | plasma concentration of the compound of the examples ([3]; 0 min) | plasma concentration of the compound of the examples ([3]; 15 min) | plasma concentration of the compound of the examples ([3]; 30 min) | plasma concentration of the compound of the examples ([3]; 60 min) | plasma concentration of the compound of the examples ([3]; 90 min) | plasma concentration of the compound of the examples ([3]; 120 min) | plasma concentration of the compound of the examples ([3]; 180 min) | stability and metabolism to rolapitant in plasma (in words) [3] | Chemical stability [1] | also measured
C[C@H](N)C(=O)OCOC(=O)N1C[C@@]2(CCC(=O)N2)CC[C@@]1(CO[C@H](C)c1cc(C(F)(F)F)cc(C(F)(F)F)c1)c1ccccc1 [Example 13] |  |  |  |  |  |  |  |  | Moderate (purity reduced by 0.5%~2.0% after placing for 7 days) | 
C[C@@H](OC[C@@]1(c2ccccc2)CC[C@]2(CCC(=O)N2)CN1C(=O)OCOC(=O)[C@@H](N)CCCCN)c1cc(C(F)(F)F)cc(C(F)(F)F)c1 [Example 17] |  |  |  |  |  |  |  |  | Moderate (purity reduced by 0.5%~2.0% after placing for 7 days) | 
C[C@@H](OC[C@@]1(c2ccccc2)CC[C@]2(CCC(=O)N2COC(=O)N(C)C)CN1)c1cc(C(F)(F)F)cc(C(F)(F)F)c1 [Example 9] |  |  |  |  |  |  |  |  | Good (purity reduced by <0.5% after placing for 7 days) | solubility ([2]; phosphate buffer, PH = 3): < 100 µg/mL
C[C@@H](OC[C@@]1(c2ccccc2)CC[C@]2(CCC(=O)N2C(=O)OCC(=O)O)CN1)c1cc(C(F)(F)F)cc(C(F)(F)F)c1 [Example 6] | 980 nM | 850 nM | 910 nM | 850 nM | 770 nM | 700 nM | 530 nM | overall amount of metabolism in plasma is relatively small | Good (purity reduced by <0.5% after placing for 7 days) | solubility ([2]; phosphate buffer, PH = 3): 1120 µg/mL (≈ 1860 µM)
Cc1oc(=O)oc1CN1C(=O)CC[C@]12CC[C@@](CO[C@H](C)c1cc(C(F)(F)F)cc(C(F)(F)F)c1)(c1ccccc1)NC2 [Example 3] |  |  |  |  |  |  |  |  | Good (purity reduced by <0.5% after placing for 7 days) | solubility ([2]; PH = 5): < 100 µg/mL
C[C@@H](OC[C@@]1(c2ccccc2)CC[C@]2(CCC(=O)N2)CN1C(=O)OCCN1CCN(C)CC1)c1cc(C(F)(F)F)cc(C(F)(F)F)c1 [Example 4] | 1160 nM | 980 nM | 990 nM | 1000 nM | 970 nM | 810 nM | 780 nM | relatively stable in plasma | Good (purity reduced by <0.5% after placing for 7 days) | solubility ([2]; phosphate buffer, PH = 3): 2080 µg/mL (≈ 3100 µM)
CC(OC(=O)[C@@H](N)C(C)C)OC(=O)N1C[C@@]2(CCC(=O)N2)CC[C@@]1(CO[C@H](C)c1cc(C(F)(F)F)cc(C(F)(F)F)c1)c1ccccc1 (stereo partly shown) [Example 14] |  |  |  |  |  |  |  |  | Good (purity reduced by <0.5% after placing for 7 days) | solubility ([2]; phosphate buffer, PH = 4): 4500 µg/mL (≈ 6540 µM)
C[C@@H](OC[C@@]1(c2ccccc2)CC[C@]2(CCC(=O)N2)CN1C(=O)OCOC(=O)CN)c1cc(C(F)(F)F)cc(C(F)(F)F)c1 [Example 12] |  |  |  |  |  |  |  |  | Poor (purity reduced by >2.0% after placing for 7 days) | 
CC(C)[C@@H](N)C(=O)OCOC(=O)N1C[C@@]2(CCC(=O)N2)CC[C@@]1(CO[C@H](C)c1cc(C(F)(F)F)cc(C(F)(F)F)c1)c1ccccc1.O=C(O)C(F)(F)F [Example 18] |  |  |  |  |  |  |  |  | Good (purity reduced by <0.5% after placing for 7 days) | Water solubility ([2]; PH = 4): 2.62 mg/mL (PH = 4) mg/ml

Further lines, with some results ahead:

plasma concentration of the compound of the examples ([3]; 0 min) | plasma concentration of the compound of the examples ([3]; 15 min) | plasma concentration of the compound of the examples ([3]; 30 min) | plasma concentration of the compound of the examples ([3]; 60 min) | plasma concentration of the compound of the examples ([3]; 90 min) | plasma concentration of the compound of the examples ([3]; 120 min) | plasma concentration of the compound of the examples ([3]; 180 min) | stability and metabolism to rolapitant in plasma (in words) [3] | Structure (SMILES) | Chemical stability [1] | also measured
1040 nM | 920 nM | 970 nM | 960 nM | 930 nM | 950 nM | 880 nM | relatively stable in plasma | CC(C)[C@H](N)C(=O)OCCCOC(=O)N1C[C@@]2(CCC(=O)N2)CC[C@@]1(CO[C@H](C)c1cc(C(F)(F)F)cc(C(F)(F)F)c1)c1ccccc1.O=C(O)C(F)(F)F [Example 10] |  | Water solubility ([2]; PH = 3): 1.86 mg/mL(PH = 3) mg/ml; plasma concentration of rolapitant after metabolism of the compound of the examples ([3]; 0 min): 0 nM; plasma concentration of rolapitant after metabolism of the compound of the examples ([3]; 15 min): 0 nM; plasma concentration of rolapitant after metabolism of the compound of the examples ([3]; 30 min): 0 nM; plasma concentration of rolapitant after metabolism of the compound of the examples ([3]; 60 min): 0 nM; plasma concentration of rolapitant after metabolism of the compound of the examples ([3]; 90 min): 0 nM; plasma concentration of rolapitant after metabolism of the compound of the examples ([3]; 120 min): 0 nM; plasma concentration of rolapitant after metabolism of the compound of the examples ([3]; 180 min): 0 nM
1010 nM | 990 nM | 910 nM | 920 nM | 1030 nM | 970 nM | 950 nM | relatively stable in plasma | CC(C)[C@H](N)C(=O)OCCOC(=O)N1C[C@@]2(CCC(=O)N2)CC[C@@]1(CO[C@H](C)c1cc(C(F)(F)F)cc(C(F)(F)F)c1)c1ccccc1.O=C(O)C(F)(F)F [Example 11] | Good (purity reduced by <0.5% after placing for 7 days) | Water solubility ([2]; PH = 3): 2.81 mg/mL(PH = 3) mg/ml; plasma concentration of rolapitant after metabolism of the compound of the examples ([3]; 0 min): 10 nM; plasma concentration of rolapitant after metabolism of the compound of the examples ([3]; 15 min): 0 nM; plasma concentration of rolapitant after metabolism of the compound of the examples ([3]; 30 min): 0 nM; plasma concentration of rolapitant after metabolism of the compound of the examples ([3]; 60 min): 10 nM; plasma concentration of rolapitant after metabolism of the compound of the examples ([3]; 90 min): 0 nM; plasma concentration of rolapitant after metabolism of the compound of the examples ([3]; 120 min): 0 nM; plasma concentration of rolapitant after metabolism of the compound of the examples ([3]; 180 min): 0 nM

— patent US12421260B2, “Neurokinin-1 antagonist” (SHANGHAI SHENGDI PHARMACEUTICAL CO., LTD, priority 2019, dated 2025)
